SMILES strings stand for the structures. Some results are limits rather than exact numbers.

In test [1] the test system is rabbit platelets. Description: PAF-induced platelet aggregation. It counts as cell-based. Conditions: Oryctolagus cuniculus, washed rabbit platelets, antagonist 60 sec before PAF, tracing height 60 sec after PAF. How it is done:
(§1) Washed, [^3 H]serotonin-labeled rabbit platelets were prepared as previously described in COX, C. P., J. LINDEN and S. I. SAID: VIP elevates platelet cyclic AMP (cAMP) levels and inhibits in vitro platelet activation induced by platelet- activating factor (PAF). Peptides 5:25-28, 1984, and maintained in an atmosphere of 5% CO2 at 37° C. until used in the bioassay. Aliquots of platelets (2.5×10^8 /ml) were incubated with either an antagonist of PAF or the appropriate vehicle for 60 sec prior to the addition of PAF (0.2 nM to 0.2 mM). Aggregation was continuously monitored on a strip-chart recorder and recorded as the height of the tracing at 60 sec after the addition of PAF. Secretion of [^3 H]serotonin was measured in a sample of the platelet suspension removed at 60 sec after the addition of PAF. The percent inhibition of aggregation and secretion was calculated by comparing antagonist-treated platelets with the appropriate vehicle-treated control platelets. Each combination of antagonist and PAF was repeated 12-15 times, using several different platelet preparations. IC50 values were determined by inspection of the dose-response curves.

For test [2], the target named is Human Platelet Membrane Receptors (PAF receptor) (Homo sapiens, UniProt P25105). The following applies: for inhibition at 50 µM: read-out: Percent Inhibition of 3H-PAF binding at 50 μM.
Chain of Human Platelet Membrane Receptors (PAF receptor) (P25105 whole entry): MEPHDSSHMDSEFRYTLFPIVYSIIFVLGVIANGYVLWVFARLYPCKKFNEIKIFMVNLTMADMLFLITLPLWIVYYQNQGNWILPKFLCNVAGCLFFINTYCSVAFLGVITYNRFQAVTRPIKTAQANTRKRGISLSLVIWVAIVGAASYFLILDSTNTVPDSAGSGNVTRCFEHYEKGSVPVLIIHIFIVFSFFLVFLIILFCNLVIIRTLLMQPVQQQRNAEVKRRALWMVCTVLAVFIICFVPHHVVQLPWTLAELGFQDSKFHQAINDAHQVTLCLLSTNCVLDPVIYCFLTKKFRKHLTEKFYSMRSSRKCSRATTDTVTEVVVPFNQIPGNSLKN
Experimental: INHIBITION OF ^3 H-PAF BINDING TO HUMAN PLATELET MEMBRANE RECEPTORS
Ten units of in-dated human packed platelets, each containing 45-65 ml platelet rich-plasma, were purchased from a commercial blood bank. Disposable plasticware was used throughout for receptor preparation. The units were pooled and a 1 ml aliquot was removed for determination of platelet concentration, using a Coulter Counter. The remaining platelet rich plasma was dispensed into 50 ml conical tubes and centrifuged at room temperature for 15 minutes at 3000 RPM (2300×g). Plasma was decanted and the platelets were resuspended in 35 ml of buffer (10 mM Trizma 7.0, 2 mM EDTA (dipotassium salt), and 150 mM KCl) and transferred to fresh tubes, which were centrifuged again as above. The platelets were washed 3 times, avoiding contaminating erythrocytes at the bottom of the pellets. Pellets were consolidated at each step, and by the last wash with EDTA/KCl buffer, most of the erythrocytes were in 1 tube. The pellets were resuspended in buffer containing 10 mM Trizma 7.0 with 10 mM CaCl2. Following centrifugation, the buffer was decanted and the pellets were resuspended in the CaCl2 buffer, avoiding erythrocyte contamination by recovering less than 100% of the platelet pellets. The resuspended platelets were dispensed in 8-10 ml aliquots into Corex tubes and disrupted by three cycles of freezing (dry ice/ethanol) and thawing (24° C.). The tubes were centrifuged at 40,000 × g for 20 minutes at 4° C. Supernatants were decanted and each pellet was resuspended in 5-7 ml 10 mM Trizma 7.0. All resuspended pellets were pooled and aliquots of about 1200 ml were dispensed into 1.5 ml microfuge tubes and frozen at -70° C. Protein content was determined by a fluorescamine protein assay.
Assay Methods: Receptor Characterization--Each receptor preparation was evaluated to determine the number of receptor populations, the number of PAF receptor equivalents/mg protein and the dissociation constant (KD) for PAF binding This required 2-3 experiments in which the protein concentration was held constant and the ^3 H-PAF ligand concentration was varied from approximately 0.10-2.5 nM and the data was analyzed by Scatchard methodology. Total incubation volume was 250 ml for these procedures and incubations were conducted at 24° C. for 30 minutes. For further experimentation, total incubation volumes are 500 ml. Protein and ligand concentrations were adjusted to give 0.075 nM receptor equivalents in the presence of 0.75 nM ^3 H-PAF. Each receptor preparation was then used to determine the dose - response displacement relationship of unlabeled PAF and the PAF antagonist, triazolam.
Assay Methods: Routine Assay of Compounds--The compounds were weighed precisely and solubilized in quantities of DMSO such that a 5 ml aliquot in the incubate would deliver the desired compound concentration. Compounds tested for the first time in this assay were evaluated at a concentration of 50 mM in the incubation medium. […] Triazolam was always included in each screening assay as a compound inhibition control. […] Nonspecific binding control solution was made by drying to completion about 26.2 ml unlabeled PAF under a stream of argon. PAF was resolubilized in 1000 ml DMSO. When delivered in a 5 ml aliquot, the final concentration of 1 mM PAF in the incubate exceeded by 1000-fold the concentration of ^3 H-PAF.
All buffers containing proteins were made at room temperature on the day of assay. Assay buffer was prepared by adding 125 mg human albumin to 25 ml of stock buffer (10 mM Trizma 7.4 with 20 mM CaCl2). Rinse buffer was made by adding 20 grams bovine serum albumin to 1000 ml stock buffer. About 80 ml of rinse buffer was decanted into a small pyrex dish and used to soak 65 Whatman GF/C 2.5 cm glass filters. The remaining rinse buffer was poured into a repipet and placed into an ice bath along with the filters.
The test system of test [3] is rabbit platelets. Description: PAF-induced platelet secretion ([3H]serotonin). It counts as cell-based. Conditions: Oryctolagus cuniculus, washed [3H]serotonin-labeled rabbit platelets, antagonist 60 sec before PAF, sampled 60 sec after PAF. How it is done: as §1

On to `COc1ccc(Oc2ccc(C(=O)N(C(C)C)C3CCCCC3)cc2)cc1OC` [Example 6, N-cyclohexyl-4-(3,4-dimethoxyphenoxy)-N-(1-methylethyl)benzamide], for which the values for the IC50 in test [1] (1 min), in test [2] and in test [3] were 0.1 to 1 µM, 2.01 µM and 0.0859 µM, respectively.

Regarding `COc1cccc(OCc2ccc(C(=O)N(C(C)C)C3CCCCC3)cc2OC)c1` [Example 21, N-cyclohexyl-3-methoxy-4-[(3-methoxyphenoxy)methyl]-N-(1-methylethyl)benzamide], in test [2], half-maximal inhibition (IC50) required 11.2 µM.

As for `COc1ccc(Cc2ccc(C(=O)N(C3CCCC3)C3CCCC3)cc2)cc1OC` [Example 11, N,N-dicyclopentyl-4-[(3,4-dimethoxyphenyl)methyl]benzamide], the 50% inhibitory concentration (IC50) (as a rule, the concentration at which inhibition is half-maximal) in test [1] (1 min) was 1 to 10 µM; in test [2], 1.48 µM; in test [3], 0.114 µM.

Take `CC(C)N(C(=O)c1ccc(Oc2ccc3c(c2)OCO3)cc1)C1CCCCC1` [Example 18, N-cyclohexyl-4-(3,4-methylenedioxyphenoxy)-N-(1-methylethyl)benzamide]: the IC50 in test [1] (1 min) was 1 to 10 µM; in test [2] it was 8.16 µM; in test [3], 1.99 µM.

With `COc1cc(OC)c(OC)cc1Cc1ccc(C(=O)N(C2CCCCC2)C2CCCC2)cc1` [Example 17, N-cyclohexyl-N-cyclopentyl-4-[(2,4,5-trimethoxyphenyl)methyl]benzamide], the IC50 in test [1] (1 min) is 1 to 10 µM; in test [2], 3.71 µM; in test [3], 0.632 µM.

As for `COc1ccc(C(O)c2ccc(C(=O)N(C3CCCCC3)C3CCCC3)cc2)cc1OC` (stereo not drawn) [Example 9, N-cyclohexyl-N-cyclopentyl-4-[(3,4-dimethoxyphenyl)hydroxymethyl]benzamide], the IC50 is 1 to 10 µM in test [1] (1 min) and 1.49 µM in test [3]. The inhibition (usually the share of the control response that was lost under treatment) at 50 µM in test [2] was 61.9%.

For the molecule `COc1ccc(Oc2ccc(C(=O)N(C3CCCC3)C3CCCC3)cc2)cc1OC` [Example 7, N,N-dicyclopentyl-4-(3,4-dimethoxyphenoxy)benzamide], the figures for the 50% inhibitory concentration (IC50) in test [1] (1 min), in test [2] and in test [3] were 1 to 10 µM, 0.914 µM and 0.422 µM, respectively.

For the molecule `COc1cccc(OCc2ccc(C(=O)N(C)C3CCCCC3)cc2)c1` [Example 22, N-cyclohexyl-4-[(3-methoxyphenoxy)methyl]-N-methylbenzamide], the 50% inhibitory concentration (IC50) is 10 to 100 µM in test [1] (1 min), 53.2 µM in test [2] and over 10 µM in test [3].

For `COc1cc(Oc2ccc(C(=O)N(C3CCCCC3)C3CCCC3)cc2)cc(OC)c1OC` [Example 4, N-cyclohexyl-N-cyclopentyl-4-(3,4,5-trimethoxyphenoxy)benzamide], the IC50 in test [1] (1 min) is 1 to 10 µM; in test [2], 0.508 µM; in test [3], 0.00936 µM.

Consider `COc1ccc(C(O)c2ccc(C(=O)N(C3CCCC3)C3CCCC3)cc2)cc1OC` (stereo not drawn) [Example 10, N,N-dicyclopentyl-4-[(3,4-dimethoxyphenyl) hydroxymethyl]benzamide], for which the IC50 is over 10 µM in test [1] and 1 to 10 µM in test [3] (1 min). Moreover, the inhibition at 50 µM in test [2] came to 47%.

Consider `COc1cc(Cc2ccc(C(=O)N(C(C)C)C3CCCCC3)cc2)cc(OC)c1OC` [Example 15, N-cyclohexyl-N-(1-methylethyl)-4-[(3,4,5-trimethoxyphenyl)methyl]benzamide], for which the values for the half-inhibitory concentration (IC50) in test [1] (1 min), in test [2] and in test [3] were 0.1 to 1 µM, 0.425 µM and 0.0266 µM, respectively.

On to `COc1cc(Oc2ccc(C(=O)N(C3CCCCC3)C3CCCC3)cc2C)cc(OC)c1OC` [Example 13, N-cyclohexyl-N-cyclopentyl-3-methyl-4-(3,4,5-trimethoxyphenoxy)benzamide], for which the IC50 in test [1] is under 1 µM; in test [2], 0.6 µM; in test [3] it was 0.0894 µM.

For `COc1ccc(Oc2ccc(C(=O)N(C(C)C)C3CCCCC3)cc2)cc1` [Example 2, N-cyclohexyl-4-(4-methoxyphenoxy)-N-(1-methylethyl)benzamide], the IC50 is 1 to 10 µM in test [1] (1 min), 22.1 µM in test [2] and 1.12 µM in test [3].

In the case of `COc1cc(Oc2ccc(C(=O)N(C(C)C)C3CCCCC3)cc2)cc(OC)c1OC` [Example 1, N-cyclohexyl-N-(1-methylethyl)-4-(3,4,5-trimethoxyphenoxy)benzamide], the half-maximal inhibitory concentration (IC50) in test [1] (1 min) is 0.01 to 0.1 µM; in test [2] it was 0.133 µM; in test [3] it was 0.0089 µM.

Consider `COc1ccc(Oc2ccc(C(=O)N(C3CCCCC3)C3CCCC3)cc2)cc1OC` [Example 5, N-cyclohexyl-N-cyclopentyl-4-(3,4-dimethoxyphenoxy)benzamide], for which the 50% inhibitory concentration (IC50) is 1 to 10 µM in test [1] (1 min), 1.5 µM in test [2] and 4.01 µM in test [3].

`COc1cc(OCc2ccc(C(=O)N(C)C3CCCCC3)cc2)cc(OC)c1OC` [Example 23, N-cyclohexyl-N-methyl-4-[(3,4,5-trimethoxyphenoxy)methyl]benzamide]: the figures for the IC50 in test [1] (1 min), in test [2] and in test [3] (1 min) were 10 to 100 µM, over 50 µM and 10 to 100 µM, respectively.

Molecule `COc1cc(C(=O)N(C(C)C)C2CCCCC2)ccc1Oc1cc(OC)c(OC)c(OC)c1` [Example 19, N-cyclohexyl-3-methoxy-N-(1-methylethyl)-4-(3,4,5-trimethoxyphenoxy)benzamide] came in with a concentration for half-maximal inhibition (IC50) in test [2] of 0.995 µM.

For `COc1cccc(Oc2ccc(C(=O)N(C(C)C)C3CCCCC3)cc2)c1` [Example 3, N-cyclohexyl-4-(3-methoxyphenoxy)-N-(1-methylethyl)benzamide], the half-inhibitory concentration (IC50) in test [1] (1 min) was 1 to 10 µM; in test [2], 10.5 µM; in test [3], 0.75 µM.

`COc1cc(OC)cc(Oc2ccc(C(=O)N(C(C)C)C3CCCCC3)cc2)c1` [Example 12, N-cyclohexyl-4-(3,5-dimethoxyphenoxy)-N-(1-methylethyl)benzamide]: the half-inhibitory concentration (IC50) in test [1] (1 min) was 1 to 10 µM; in test [2] it was 2.71 µM; in test [3], 0.142 µM.

For `COc1ccc(C(O)c2ccc(C(=O)N(C(C)C)C3CCCCC3)cc2)cc1OC` (stereo not drawn) [Example 8, N-cyclohexyl-4-[(3,4-dimethoxyphenyl)hydroxymethyl]-N-(1-methylethyl)benzamide], the IC50 was 10 to 100 µM in test [1] (1 min) and 2.57 µM in test [3]. The inhibition at 50 µM in test [2] turned out to be 44%.

Regarding `COc1ccc(OCc2ccc(C(=O)N(C(C)C)C3CCCCC3)cc2OC)c(OC)c1` [Example 20, N-cyclohexyl-4-[(2,4-dimethoxyphenoxy)methyl]-3-methoxy-N-(1-methylethyl)benzamide], the inhibition at 50 µM in test [2] was determined as 41%.

Regarding `COc1cc(C(O)c2ccc(C(=O)N(C(C)C)C3CCCCC3)cc2)cc(OC)c1OC` (stereo not drawn) [Example 14, N-cyclohexyl-4-[hydroxy(3,4,5-trimethoxyphenyl)methyl]-N-(1-methylethyl)benzamide], the IC50 in test [1] (1 min) was 0.1 to 1 µM; in test [3], 1.81 µM. Moreover, in test [2], the inhibition at 50 µM stood at 49.2%.

`COc1cc(C(=O)c2ccc(C(=O)N(C(C)C)C3CCCCC3)cc2)cc(OC)c1OC` [Example 16, N-cyclohexyl-N-(1-methylethyl)-4-(3,4,5-trimethoxybenzoyl)benzamide]: the IC50 in test [1] (1 min) is 0.1 to 1 µM; in test [3] it was 0.103 µM.

In the case of `Cc1nnc2n1-c1ccc(Cl)cc1C(c1ccccc1Cl)=NC2` [Triazolam, triazolam, reference compound], the “inhibition of 3H-PAF binding by triazolam control at standard concentration” value in test [2] (standard concentration of 50 mM (so in the source), 0.75 nM 3H-PAF) was “approximately 50%”.

The values are drawn from patent publication US5223539A, “N,N-Di-alkyl(phenoxy)benzamide derivatives” (G. D. Searle & Co., priority 1991, dated 1993).
